# Reference: US10111841B2, “Stabilization of alcohol intoxication-induced cardiovascular instability” (UNIVERSITY OF SOUTH FLORIDA, priority 2015, dated 2018)
# Assays:
# endothelial barrier = conditions: in vitro; cited from earlier work
# [1] = tested on: microvascular hyperpermeability; conditions: in vivo; cited from earlier work
# [2] = 0.5 mg/kg; anesthetized rats; several hours after administration; cited from earlier work
# HUVEC = assay: TER of HUVEC monolayers on gold-plated electrodes (endothelial barrier function); type: cell-based; conditions: for course of barrier function (TER) over time / restoration of barrier function (TER) after alcohol: 50 mM alcohol, 10 min later 1 μM compound
# Experimental: (§1) FIGS. 3A-3D. Alcohol-induced endothelial barrier dysfunction in cultured endothelial cell monolayers. FIG. 3A: Time-course of changes in transepithelial electrical resistance (TER) of HUVEC monolayers following application of vehicle (water) or 20, 50, or 100 mM alcohol. FIG. 3B: Time course of alcohol-induced changes in TER in HMVEC-C monolayers. FIG. 3C: The mean maximum alcohol-induced changes in TER in HUVEC. FIG. 3D: Mean maximum alcohol-induced changes in TER in HMVEC-c. *P<0.05 and **P<0.01 vs. vehicle. One-way ANOVA followed by Dunnett's test, all groups, N=4.
# FIGS. 6A and 6B. Alcohol-induced barrier dysfunction in HUVEC was resolved faster by S1P treatment. HUVEC were cultured to confluence on gold-plated electrodes and then serum starved for 1-2 hours. Following 30 minutes of baseline TER measurements, alcohol was added to the wells to a final concentration of 50 mM for 5 minutes before treatment with 1 μM of […] or vehicle. FIG. 6A: Time course of changes in HUVEC monolayer TER in response to 50 mM alcohol, followed by addition of 1 μM S1P 5 min later, or vehicle (PBS) 5 min later. FIG. 6B: Mean recovery time for HUVEC, i.e., time to return to baseline TER, starting from the time point immediately preceding alcohol was added. **P<0.01 versus alcohol/vehicle group. Statistical analysis by t-test; all HUVEC groups, N=8.
# (§2) FIGS. 10A-10C. Selective S1P1R agonist FTY720-phosphonate ameliorates alcohol-induced microvascular hyperpermeability. FTY720 and its analogs reverse alcohol-induced disruption of EC monolayer barrier function. In all panels, 50 mM alcohol or vehicle was applied first, and 10 min later, 1 μM of FTY720 (FIG. 10A) FTY720-P (FIG. 10B) or FTY720 (S)-phosphonate (FIG. 10C) or vehicle was added. […] A minimum of N=4 monolayers in each group.
# (§3) The direct impact of alcohol on endothelial barrier function was tested using cultured HUVEC or HMVEC-c confluent monolayers grown on gold-plated electrodes. Thirty minutes of baseline transepithelial electrical resistance (TER) measurements were recorded before the cells were treated with alcohol at final bath concentrations of 20, 50 or 100 mM. Alcohol was added directly into the MEDIA within the wells. […] The decrease in TER was alcohol concentration-dependent with high alcohol concentrations eliciting a larger drop in TER. The maximal decline in TER from baseline was significant for the 50 and 100 mM concentrations in both HUVEC (FIG. 3C) and HMVEC-c (FIG. 3D).
# The inventors next set out to determine if S1P could similarly reduce the recovery time for TER to be reestablished to baseline in HUVEC pretreated with alcohol. Following 30 minutes of baseline TER measurements, alcohol was added to the wells to a final concentration of 50 mM for 5 minutes before treatment with 1 μM S1P or vehicle.
# (§4) FIGS. 10A-C show TER data. TER is an index of the barrier function of endothelial cells. […] Unlike S1P, which restored the barrier in about 5 min (see FIG. 6A), FTY720 restored barrier function occurred gradually (FIG. 10A).
# [3] = combined hemorrhage and trauma (laparotomy), anesthetized rats; cited from earlier work
# S1P1R = S1P1R (Homo sapiens, UniProt P21453); conditions: cited from earlier work
# Chain of S1P1R (P21453 whole entry): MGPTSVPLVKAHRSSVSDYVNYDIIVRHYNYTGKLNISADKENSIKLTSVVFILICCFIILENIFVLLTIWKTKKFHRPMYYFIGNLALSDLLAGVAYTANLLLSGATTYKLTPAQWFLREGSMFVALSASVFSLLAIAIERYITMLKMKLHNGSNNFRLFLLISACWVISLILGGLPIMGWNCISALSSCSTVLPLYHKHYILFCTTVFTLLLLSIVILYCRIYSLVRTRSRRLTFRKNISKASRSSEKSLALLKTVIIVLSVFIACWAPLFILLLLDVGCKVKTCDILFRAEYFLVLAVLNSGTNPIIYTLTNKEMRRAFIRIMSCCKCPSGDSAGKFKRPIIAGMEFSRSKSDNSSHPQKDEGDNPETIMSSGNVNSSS
# [4] = multiple sclerosis patients; cited from earlier work
# [5] = swine, uncontrolled hemorrhage; cited from earlier work
# HMVEC-c = assay: TER of HMVEC-c / cardiac microvascular EC monolayers; type: cell-based
# Experimental: as §1, §2, §3, §4
# [6] = tested on: mesenteric microcirculation
# From the text: FIG. 5A: Representative fluorescent image of the mesenteric microcirculation of a rat that received water and undergoing sham-HSR illustrating that FITC-albumin was present mainly inside the lumen of microvessels. […] FIG. 5C: Representative image of the mesenteric microcirculation of a water-treated rat that underwent HSR. FIG. 5D: Representative image of the mesenteric microcirculation of an alcohol-treated rat that underwent HSR.
# Immediately following completion of the HSR protocol the animal was anesthetized and prepped for IVM. […] This extravasation was quantified by calculating the mean 60-minute RM.
# [7] = MAP during fixed-pressure hemorrhage and resuscitation (HSR) protocol; type: in vivo, Sprague-Dawley rats
# [8] = Blood alcohol concentration after intragastric alcohol; conditions: 30 minutes after 2.5 g/kg alcohol vs time-matched water-treated groups
# Experimental: Blood alcohol concentrations (BAC) 30 minutes after administration of 2.5-g/kg alcohol or isovolumic water. Intragastric catheters were implanted 2-3 days before the day of experiments. Male Sprague-Dawley rats were administered 2.5 g/kg alcohol or isovolumic water and allowed to freely roam in their cages for 30 minutes. Following 30 minutes incubation, experimental protocols were begun and blood samples obtained.
# Administration of a 2.5-g/kg dose of alcohol was performed via an intragastric catheter that was implanted 2-3 days before the day of experiment. The animals were allowed to roam freely for 30 minutes after administration.
# [9] = tested on: mesenteric microcirculation; assay: IVM of FITC-albumin extravasation in the rat mesenteric microcirculation; type: in vivo, Sprague-Dawley rats
# Experimental: FIGS. 2A-2D. […] FIG. 2C: Mean maximum change in IOI in the extravascular space from the initial baseline just after FITC-albumin was injected i.v. to the end of the IVM experiment. FIG. 2D: Mean mesenteric arteriolar diameter in the observed microvascular beds. *P<0.05, alcohol vs. water. Mann-Whitney U-test, N=5 rats studied for the water group, and N=8 rats studied for the alcohol group.
# FIGS. 7A-7C. […] White circles highlight areas of FITC-Albumin fluorescence in the surrounding interstitium. White arrows indicate areas of FITC-Albumin accumulation resulting in hotspots of fluorescence within and just outside the vessel walls. […] FIG. 7C: Mean maximum change in IOI in the extravascular space, from the initial baseline just after FITC-albumin was injected i.v. **P<0.01, Alcohol-Sham. Statistical analysis by t-test; both treatment groups, N=8.
# S1P has been used to reduce the permeability of rat microvessels to BSA, however, only one study has been performed in intact animals. Using the inventors' established method of observing hyperpermeability in the rat mesentery, the ability of S1P to abolish or attenuate the enhanced extravasation of FITC-albumin caused by acute alcohol intoxication was examined. After receiving a 2.5 g/kg bolus of alcohol and allowed free roaming for 30 minutes, rats were prepared for IVM and administered S1P to a final concentration of 2 μM within the FITC-albumin infusion. This provided an estimated final plasma concentration of S1P in the rats of 0.2 μM.
# [10] = MAP during IVM following HSR; type: in vivo, Sprague-Dawley rats; conditions: alcohol-intoxicated rats; 0.1 mg/kg S1P during resuscitation; 30 minutes IVM; only 3 experiments
# Experimental: The time-course of changes in MAP of Sprague-Dawley rats treated with alcohol, water, or alcohol and 0.1 mg/kg S1P within the resuscitation fluid during the IVM stage.
# As before, immediately following completion of the HSR protocol the animal was anesthetized and prepped for IVM. During IVM, MAP is continually monitored. […] At the time of writing this, only 3 IVM experiments were performed with alcohol-intoxicated animals that received S1P during resuscitation.
# [11] = cardiac microvascular EC, 50 mM alcohol, 10 min later 1 μM compound
# [12] = 2.5 g/kg alcohol vs water-treated animals
# [13] = alcohol-intoxicated rats (2.5 g/kg), S1P in the FITC-albumin infusion, estimated plasma 0.2 μM
smiles,measurement,setting,value
"CCCCCCCCc1ccc(CCC(N)(CO)CO)cc1 [FTY720, 2-amino-2-(4-octylphenethyl)propane-1,3-diol]",endothelial barrier function,endothelial barrier,enhances endothelial barrier function
same,VEGF- and histamine-induced microvascular hyperpermeability,[1],reduces
same,baseline blood pressure,[2],reduced baseline blood pressure
same,course of barrier function (TER) over time,HUVEC,gradually
same,restoration of barrier function (TER) after alcohol,HUVEC,accelerated its restoration to the baseline level
same,hypotension and lung injury,[3],reduced
same,S1P1R turnover,S1P1R,can cause proteasome-mediated turnover of S1P1R
same,rate of clinical relapses,[4],reduce the rate of clinical relapses
same,survival,[5],improved survival
CCCCCCCCc1ccc(CC[C@](N)(CO)COP(=O)(O)O)cc1 [FTY720-P],course of barrier function (TER) over time,HMVEC-c; [11],"overshoot over the original baseline, followed by a gradual drop over time"
same,restoration of barrier function (TER) after alcohol,HMVEC-c; [11],much more rapid elevation in barrier function
"CCCCCCCCc1ccc(CC[C@@](N)(CO)CCP(=O)(O)O)cc1 [FTY720 (S)-phosphonate, (S)-3-amino-3-(hydroxymethyl)-5-(4-octylphenyl)pentylphosphonic acid]",endothelial barrier function,endothelial barrier,longer-lasting endothelial barrier enhancement
same,course of barrier function (TER) over time,HUVEC,sustained enhancement of barrier integrity over time
same,restoration of barrier function (TER) after alcohol,HUVEC,"rapid rescue of barrier function, rising above baseline levels"
same,S1P1R turnover,S1P1R,limits this S1P1R turnover
CCO [alcohol],mean 60-minute IOI (printed RN) in the extravascular space,[6]; alcohol-HSR rats vs water-HSR rats,significantly higher
same,mean 60-minute IOI in the extravascular space,[6]; alcohol-sham rats vs water-sham rats,significantly higher
same,maximal decline in TER from baseline,HUVEC; 50 and 100 mM alcohol vs vehicle,significant
same,TER of the monolayer,"HUVEC; alcohol 20, 50 or 100 mM",immediate decline in the TER
same,recovery of MAP during the resuscitation phase,[7]; 2.5 g/kg alcohol vs water,significantly blunted
same,baseline MAP,[7]; [12],significantly lower
same,total blood volume shed to achieve the 40-60 mm Hg target MAP (TBR),[7]; [12],significantly less
same,BAC,[8],significantly higher
same,mean maximal change in IOI in the extravascular space adjacent to postcapillary venules,[9]; 2.5 g/kg alcohol intragastric vs water control rats,significantly higher
same,mean arteriolar diameter of third-order arterioles,[9]; 2.5 g/kg alcohol vs control groups,no significant difference
same,maximal decline in TER from baseline,"HMVEC-c; HMVEC-c, 50 and 100 mM alcohol vs vehicle",significant
same,TER of the monolayer,"HMVEC-c; HMVEC-c, alcohol 20, 50 or 100 mM",immediate decline in the TER
"CCCCCCCCCCCCC/C=C/[C@@H](O)[C@@H](N)COP(=O)(O)O [S1P, sphingosine-1-phosphate]",TER time course after alcohol,"HUVEC; 50 mM alcohol for 5 minutes, then 1 μM S1P",rapidly rise to the previously established baseline levels
same,reestablishing baseline TER faster than cells treated with vehicle (recovery time),"HUVEC; 50 mM alcohol for 5 minutes, then 1 μM S1P or vehicle",about 30 minutes
same,time to restore the barrier,"HUVEC; after alcohol, FIG. 6A",about 5 min
same,recovery of MAP during resuscitation,"[7]; alcohol-intoxicated rats, 0.1 mg/kg S1P within lactated Ringer's resuscitation fluid",same impaired recovery of MAP
same,extravasation of FITC-albumin,[9]; [13],marked reduction
same,mean IOI in the extravascular space vs FITC-albumin infusion alone,[9]; [13],significantly lower
same,MAP higher than alcohol-intoxicated animals that received standard fluids,[10],20-25 mm Hg
